Measured values from patent publication US7541464B2, “7-azaindoles, pharmaceutical compositions and their therapeutic applications” (Sanofi-Aventis Deutschland GmbH, priority 2004, dated 2009).
Where two headings read alike, the source gives them in different places.

What was measured:
[1] = target: T1, human PPARalpha (Homo sapiens, UniProt Q07869); assay: Cellular PPARalpha assay (HEK luciferase reporter cell line); assay type: cell-based; conditions: PPARalpha reporter cell line (HEK, GR-GAL4-humanPPARalpha-LBD)
T1 construct: amino acids S167-Y468; expressed in transfected cells; plasmid pcDNA3
T1 sequence (Q07869 167-468): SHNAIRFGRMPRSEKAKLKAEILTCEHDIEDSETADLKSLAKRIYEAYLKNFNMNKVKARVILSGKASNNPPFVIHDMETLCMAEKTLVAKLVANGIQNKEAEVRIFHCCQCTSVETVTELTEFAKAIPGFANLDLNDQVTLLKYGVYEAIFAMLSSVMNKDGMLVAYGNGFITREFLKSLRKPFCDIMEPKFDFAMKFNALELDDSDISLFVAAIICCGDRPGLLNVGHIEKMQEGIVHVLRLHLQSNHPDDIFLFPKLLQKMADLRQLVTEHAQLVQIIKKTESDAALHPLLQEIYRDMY
Method: Determination of EC50 Values of PPAR Agonists In the Cellular PPARalpha Assay
The potency of substances which bind to human PPARalpha and activate it in an agonistic manner is analyzed using a stably transfected HEK cell line (HEK=human embryo kidney) which is referred to here as PPARalpha reporter cell line. It contains two genetic elements, a luciferase reporter element (pdeltaM-GAL4-Luc-Zeo) and a PPARalpha fusion protein (GR-GAL4-humanPPARalpha-LBD) which mediates expression of the luciferase reporter element depending on a PPARalpha ligand. The stably and constitutively expressed fusion protein GR-GAL4-humanPPARalpha-LBD binds in the cell nucleus of the PPARalpha reporter cell line via the GAL4 protein portion to the GAL4 DNA binding motifs 5′-upstream of the luciferase reporter element which is stably integrated in the genome of the cell line. There is only weak expression of the luciferase reporter gene in the absence of a PPARalpha ligand if fafty acid-depleted fetal calf serum (cs-FCS) is used in the assay. PPARalpha ligands bind and activate the PPARalpha fusion protein and thereby stimulate the expression of the luciferase reporter gene. The luciferase which is formed can be detected by means of chemiluminescence via an appropriate substrate. […]
The activity of PPARalpha agonists is determined in a 3-day assay which is described below: […]

[2] = target: T2, human PPARdelta (Homo sapiens, UniProt Q03181); assay: Cellular PPARdelta assay (HEK luciferase reporter cell line); assay type: cell-based; conditions: PPARdelta reporter cell line (HEK, GR-GAL4-humanPPARdelta-LBD)
T2 construct: amino acids S139-Y441; expressed in transfected cells; plasmid pcDNA3
T2 sequence (Q03181 139-441): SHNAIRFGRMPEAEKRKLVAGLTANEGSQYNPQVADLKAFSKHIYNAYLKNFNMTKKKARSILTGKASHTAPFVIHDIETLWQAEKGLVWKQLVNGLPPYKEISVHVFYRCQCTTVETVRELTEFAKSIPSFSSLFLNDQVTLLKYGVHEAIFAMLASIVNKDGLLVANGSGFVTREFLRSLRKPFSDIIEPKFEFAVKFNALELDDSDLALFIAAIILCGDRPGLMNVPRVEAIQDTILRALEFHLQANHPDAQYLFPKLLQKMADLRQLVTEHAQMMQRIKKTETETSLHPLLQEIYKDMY
Method: The potency of substances which bind to human PPARdelta and activate it in an agonistic manner is analyzed using a stably transfected HEK cell line (HEK=human embryo kidney) which is referred to here as PPARdelta reporter cell line. In analogy to the assay described for PPARalpha, the PPARdelta reporter cell line also contains two genetic elements, a luciferase reporter element (pdeltaM-GAL4-Luc-Zeo) and a PPARdelta fusion protein (GR-GAL4-humanPPARdelta-LBD) which mediates expression of the luciferase reporter element depending on a PPARdelta ligand. The stably and constitutively expressed fusion protein GR-GAL4-humanPPARdelta-LBD binds in the cell nucleus of the PPARdelta reporter cell line via the GAL4 protein portion to the GAL4 DNA binding motifs 5′-upstream of the luciferase reporter element which is stably integrated in the genome of the cell line. […] The luciferase which is formed can be detected by means of chemiluminescence via an appropriate substrate. […]
The activity of PPARdelta agonists is determined in a 3-day assay in exact analogy to the procedure already described for the PPARalpha reporter cell line except that the PPARdelta reporter cell line and a specific PPARdelta agonist was used as a standard to control test efficacy.

[3] = tested on: PPARdelta/PPARalpha; conditions: rhesus and cynomolgus monkeys; cited from earlier work
[4] = tested on: PPARdelta/PPARalpha; conditions: two weeks clinical trials in healthy volunteers; cited from earlier work
[5] = tested on: PPARdelta; conditions: diabetic animal model; cited from earlier work
[6] = tested on: PPARdelta; conditions: obese, insulin resistant rhesus monkeys; cited from earlier work

## CCCCc1nc(-c2ccc(C(F)(F)F)cc2)sc1Cn1ccc2cc(OCC(=O)O)cnc21 [Example 1, {1-[4-Butyl-2-(4-trifluoromethyl-phenyl)-thiazol-5-ylmethyl]-1H-pyrrolo[2,3-b]pyridin-5-yloxy}-acetic acid]
[1]
  EC50: 40 nM
[2]
  EC50: 470 nM

## CCCc1c(OCCCSc2nnc(SCC(=O)O)s2)ccc(C(C)=O)c1O [YM-16638]
[3]
  plasma lipids: significantly lowers plasma lipids
[4]
  plasma lipids: acts in a similar manner

## CCCc1c(OCCCOc2ccc(OCC(=O)O)cc2)ccc(C(C)=O)c1O [Example L-165041]
[5]
  plasma cholesterol: raises plasma cholesterol

## Cc1cc(SCc2sc(-c3ccc(C(F)(F)F)cc3)nc2C)ccc1OCC(=O)O [GW501516]
[6]
  HDL-cholesterol: raises
  plasma LDL-cholesterol: decreases
  plasma insulin levels: decreases
  plasma triglycerides: decreases

## CCCCc1nc(-c2ccc(C(F)(F)F)cc2)sc1Cn1ccc2c(CCC)c(OCC(=O)O)cnc21 [Example 2, {1-[4-Butyl-2-(4-trifluoromethyl-phenyl)-thiazol-5-ylmethyl]-4-propyl-1H-pyrrolo[2,3-b]pyridin-5-yloxy}-acetic acid]
[1]
  EC50: 320 nM
[2]
  EC50: 140 nM
